Data taken from ChEMBL document CHEMBL1136565, “5-Azidoepibatidine: an exceptionally potent photoaffinity ligand for neuronal alpha 4 beta 2 and alpha 7 nicotinic acetylcholine receptors” (Bioorg Med Chem Lett, 2003).

Experiments:
[1] = target: Neuronal acetylcholine receptor subunit alpha-7 (Homo sapiens, UniProt P36544); experiment: Binding affinity to alpha-7 receptor subtype from human neuroblastoma SH-SY5Y cells was measured using [125I]-alpha-bungarotoxin as radioligand; assay type: cell-based
[2] = Binding affinity to Drosophila nicotinic receptor was measured using [3H]imidacloprid as radioligand; design: species or system Drosophila melanogaster
[3] = target: Neuronal acetylcholine receptor; alpha4/beta2 (Homo sapiens, UniProt P17787+P43681); experiment: Binding affinity to alpha4 beta-2 receptor subtype from mouse fibroblast M10 cells was measured using [3 H]nicotine; assay type: cell-based
Chain of Neuronal acetylcholine receptor; alpha4/beta2 (P17787 whole entry): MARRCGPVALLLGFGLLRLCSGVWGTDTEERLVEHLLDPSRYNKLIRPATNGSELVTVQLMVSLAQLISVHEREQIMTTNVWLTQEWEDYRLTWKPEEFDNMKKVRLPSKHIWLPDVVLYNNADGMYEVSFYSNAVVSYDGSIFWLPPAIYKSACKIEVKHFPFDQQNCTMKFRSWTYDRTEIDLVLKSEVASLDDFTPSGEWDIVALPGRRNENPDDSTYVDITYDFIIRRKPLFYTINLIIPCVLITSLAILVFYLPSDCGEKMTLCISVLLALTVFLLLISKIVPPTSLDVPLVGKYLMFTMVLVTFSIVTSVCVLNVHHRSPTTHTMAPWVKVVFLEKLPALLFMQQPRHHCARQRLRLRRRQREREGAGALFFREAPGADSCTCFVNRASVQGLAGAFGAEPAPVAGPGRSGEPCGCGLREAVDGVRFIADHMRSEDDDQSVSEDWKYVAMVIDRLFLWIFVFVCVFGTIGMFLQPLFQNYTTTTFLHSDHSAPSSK
Chain of Neuronal acetylcholine receptor; alpha4/beta2 (P43681 whole entry): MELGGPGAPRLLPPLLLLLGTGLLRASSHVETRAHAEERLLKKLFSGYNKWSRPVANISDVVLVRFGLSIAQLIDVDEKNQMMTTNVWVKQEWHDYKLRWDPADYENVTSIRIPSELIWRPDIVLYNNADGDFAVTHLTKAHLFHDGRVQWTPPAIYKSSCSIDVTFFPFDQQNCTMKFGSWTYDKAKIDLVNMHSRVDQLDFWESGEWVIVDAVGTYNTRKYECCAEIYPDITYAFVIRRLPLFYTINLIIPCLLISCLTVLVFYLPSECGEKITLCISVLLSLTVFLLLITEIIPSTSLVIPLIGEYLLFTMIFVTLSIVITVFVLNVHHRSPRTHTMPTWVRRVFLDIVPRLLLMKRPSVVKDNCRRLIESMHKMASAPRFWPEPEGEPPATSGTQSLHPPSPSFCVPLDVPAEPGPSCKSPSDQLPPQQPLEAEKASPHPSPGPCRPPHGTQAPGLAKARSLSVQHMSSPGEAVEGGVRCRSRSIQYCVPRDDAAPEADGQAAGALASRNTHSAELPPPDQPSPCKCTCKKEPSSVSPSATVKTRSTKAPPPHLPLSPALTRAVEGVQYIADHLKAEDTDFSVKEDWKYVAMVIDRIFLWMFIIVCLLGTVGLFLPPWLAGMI

Chain of Neuronal acetylcholine receptor subunit alpha-7 (P36544 whole entry): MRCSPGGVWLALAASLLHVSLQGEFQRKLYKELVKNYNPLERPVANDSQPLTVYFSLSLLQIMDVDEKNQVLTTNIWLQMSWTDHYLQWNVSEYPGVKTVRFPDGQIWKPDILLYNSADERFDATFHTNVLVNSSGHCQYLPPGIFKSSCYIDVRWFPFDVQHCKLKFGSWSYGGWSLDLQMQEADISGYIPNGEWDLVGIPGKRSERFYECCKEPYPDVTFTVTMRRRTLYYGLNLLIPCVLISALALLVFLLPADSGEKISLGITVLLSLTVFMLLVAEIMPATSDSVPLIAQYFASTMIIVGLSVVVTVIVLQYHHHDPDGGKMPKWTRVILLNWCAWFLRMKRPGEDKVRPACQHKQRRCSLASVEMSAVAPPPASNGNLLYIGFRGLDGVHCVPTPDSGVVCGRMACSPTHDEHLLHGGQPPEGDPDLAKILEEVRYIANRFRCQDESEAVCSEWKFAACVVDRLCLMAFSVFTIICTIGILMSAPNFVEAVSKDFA

Row | Compound | Ki [1] [nM] | Ki [2] [nM] | Ki [3] [nM]
1 | Clc1ccc(C2CC3CCC2N3)cn1 (stereo not given) [EPIBATIDINE] | 10.2 | 200 | 
2 | [N-]=[N+]=Nc1cc(C2CC3CCC2N3)cnc1Cl (stereo not given) [AZIDOEPIBATIDINE] | 9.7 | 2100 | 0.027
